This is an account of results in patent US6743785B2, “Agents and methods for the treatment of proliferative diseases” (Eli Lilly and Company, priority 1999, dated 2004).

The target in test [1] is T1, cyclin D1-cdk4 (Homo sapiens, UniProt P11802). In words: Assay of Cyclin D1-cdk4 kinase activity with the ING peptide as substrate. Format: biochemical. The following applies: 200 uM ING peptide, 300 uM ATP, 60 minutes, room temperature. Here is the method:
Assay of Cyclin D1-cdk4 kinase activity with the ING Peptide as Substrate
The cyclin D1-cdk4 kinase activity of a compound was assayed by preparing a 100 ul reaction at the following concentrations: 35 mM Hepes pH 7.0, 10 mM MgCl2, 300 uM ATP, 200 uM ING peptide, 1.0 uCi of γ-^33P-ATP, 4.34 ug of cyclin D-cdk4 enzyme, 4% DMSO, and various concentrations of inhibitor. The reaction was incubated at room temperature (about 74° F.) for 60 minutes, and then terminated by the addition of 100 ul of 10% phosphoric acid. Next, the reaction was filtered through a Millipore Multiscreen-PH Plate—Catalog number MAPH NOB 10, and the plate was washed 2 times with 320 ul each of 0.5% phosphoric acid, followed by the addition of 100 ul of scintillation fluid and quantitation on a Packard Instruments, Top Count, scintillation counter.

Test [2] deals with HCT-116 or NCI H460 cells. In words: Cell growth inhibition assay (MTT). The test is classed as cell-based. The following applies: 72 h drug exposure. Here is the method:
Cell Growth Inhibition Assay The MTT assay was used to measure growth inhibitory activity (Schultz, R. M., et. al. Oncology Res. 5, 223-228, 1993). […] Basically, 1000 HCT-116 or NCI H460 cells were added per well to 96-well flat-bottom plates in 100-ul RPMI 1640 medium containing 10% dialyzed fetal bovine serum. The plates were incubated for 24 h prior to addition of test compounds. A stock solution (10 mM) was prepared in DMSO and serially diluted in medium. Compound dilutions were added to triplicate wells, and the plates were incubated for 72 hours.

In test [3] the test system is HCT-116 and NCI H460 cell lines. In words: Cell cycle analysis using flow cytometry. Format: cell-based. The following applies: compound at 1x IC50 and 3x IC50, 24 hours, DNA histogram analysis. As for the experimental part:
Cell Cycle Analysis Using Flow Cytometry
The HCT-116 and NCI H460 cell lines were seeded in 75 cm^2 flasks at 5×10^5 cells/25 ml RPMI 1640 medium containing 10% dialyzed fetal bovine serum. They were incubated for 24 hours. […] The cells were subsequently harvested and the protocol (Robinson, J. P. and Darzynkiewicz, Z. Current Protocols in Cytometry. 1997) for staining was followed. DNA histogram analysis was performed using ModFit LT(Verity House).
For orientation: Flow cytometry measures light scatter and fluorescence of single cells or particles in a stream.

Test [4] has as its system Ser-780 pRb phosphorylation in HCT116 cells. As to the kind of experiment: Inhibition of Rb phosphorylation assay. The test is classed as cell-based, Human. The following applies: 1x, 2x and 3x IC50, 24 hours, immunoblot. As for the experimental part: Inhibition of Rb Phosphorylation Assay
Human HCT116 colon carcinoma cell line was purchased from American Tissue Culture Collection (Rockville, Md.) and maintained as monolayer in RPMI-1640 with L-Glutamine and 25 mM HEPES supplemented with 10% fetal bovine serum in a 37° C. incubator with a 10% CO2 atmosphere. The detection of mycoplasm in cultured cells was performed using Mycoplasma Rapid Detection System (TaKaRa Shuzo Co. Ltd., Shiga, Japan) every 2-3 months and the cells were found consistently negative throughout these experiments. The Rb phosphorylation assay was done be plating 4×10^5 cells/well in 6-well plates. […] At the end of the incubation period the mediumj was removed and the cells were washed twice with cold PBS containing 1 mM sodium orthovanadate (Na3VO4). […] Protein concentration was determined by the Bio-Rad DC protein assay (Bio-Rad, Hercules, Calif.). […] Proteins were detected by capturing image of the membrane using Quantity One Software on a Fluor-S multi-Imager (Bio-Rad, Hercules, Calif.) in a linear range. Specific bands were quantified using Quantity One Software. […] Results are expressed as a percentage inhibition of Ser-780 pRb phosphorylation in drug treated cells versus control DMSO treated cells.

Another test relates to protein kinase C. The following applies: cited from earlier work.
For another test, the system named is protein kinase A. The following applies: cited from earlier work.
Test [5] deals with T1, cyclin D1-cdk4. In words: Assay of Cyclin D1-cdk4 kinase activity with the Rb21 protein as substrate. The following applies: 5 ug Rb21 protein, 30 uM ATP, 60 minutes, room temperature; read-out: Kinase Activity with Rb2l. Format: biochemical. Here is the method:
Assay of Cyclin D1-cdk4 Kinase Activity with the Rb21 Protein as Substrate
The cyclin D1-cdk4 kinase activity of a compound was assayed by preparing a 100 ul reaction at the following concentrations: 20 mM Hepes pH 7.0, 10 mM MgCl2, 30 uM ATP, 5 ug of Rb21 protein (Santa Cruz Biotech, Catalog # sc-4112), 1.0 uCi of γ-^33P-ATP, 1.09 ug of cyclin D-cdk4 enzyme, 4% DMSO, and various concentrations of inhibitor. The reaction was incubated at room temperature (about 74° F.) for 60 minutes, and then terminated by the addition of 100 ul of 25% trichloroacetic acid. Next, the reaction was filtered through a Millipore Multiscreen-FC Plate—Catalog number MAFC NOB 10, and the plate was washed 2 times with 320 ul each of 10% trichloroacetic acid, followed by the addition of 100 ul of scintillation fluid and quantitation on a Packard Instruments, Top Count, scintillation counter.

T1 sequence (P11802 whole entry): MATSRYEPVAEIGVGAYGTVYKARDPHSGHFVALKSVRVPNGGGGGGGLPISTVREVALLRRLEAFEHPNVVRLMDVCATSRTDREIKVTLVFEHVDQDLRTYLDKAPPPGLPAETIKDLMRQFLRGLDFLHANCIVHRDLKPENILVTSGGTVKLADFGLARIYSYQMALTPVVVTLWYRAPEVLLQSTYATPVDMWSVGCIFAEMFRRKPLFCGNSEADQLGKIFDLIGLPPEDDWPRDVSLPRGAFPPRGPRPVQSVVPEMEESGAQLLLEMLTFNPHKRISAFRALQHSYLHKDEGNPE
T1 sequence (P24385 whole entry partner): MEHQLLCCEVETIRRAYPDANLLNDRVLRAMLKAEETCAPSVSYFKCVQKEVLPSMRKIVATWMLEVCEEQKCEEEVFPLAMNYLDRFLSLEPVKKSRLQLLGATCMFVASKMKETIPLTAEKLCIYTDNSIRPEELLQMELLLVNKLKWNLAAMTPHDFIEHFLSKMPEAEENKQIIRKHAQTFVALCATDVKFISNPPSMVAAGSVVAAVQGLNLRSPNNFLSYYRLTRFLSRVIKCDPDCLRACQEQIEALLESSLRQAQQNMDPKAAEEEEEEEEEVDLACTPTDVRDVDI

On cyclin D1-cdk4 [1], `CC1(C)Cc2cccc3c4c5c(c6c7cccc8c7n(c6c4n(c23)C1)CCNC8)C(=O)NC5=O` registered an IC50 of 51 nM. On the same count and under the same terms, the figure for `CC1(C)CCn2c3c1cc(F)cc3c1c3c(c4c5cccc6c5n(c4c12)CCNC6)C(=O)NC3=O` is 413 nM. As for `CC1(C)Cc2cccc3c(C4=C(c5cn6c7c(cccc57)CNCC6)C(=O)NC4=O)cn(c23)C1`, the IC50 against cyclin D1-cdk4 [1] stood at 621 nM. Same read-out and setting: the figure for `CC1(C)CCn2cc(C3=C(c4cn5c6c(cccc46)CNCC5)C(=O)NC3=O)c3cc(F)cc1c32` is 186 nM; for `CC1(C)CCn2cc(C3=C(c4cn5c6c(cccc46)CNCC5)C(=O)NC3=O)c3cccc1c32` it is 537 nM. Still for that read-out and setting: the figure for `CC1(C)CCc2cccc3c(C4=C(c5cn6c7c(cccc57)CNCC6)C(=O)NC4=O)cn1c23` is 349 nM. With `Cl.O=C1NC(=O)c2c1c1c3cccc4c3n(c1c1c2c2cccc3c2n1CCNC3)CCC4` [Example 5], the cell growth inhibition entry in test [2] is listed as “inhibit cell growth”. Also, the cell cycle arrest entry in test [3] is “arrest cells in the G1 phase of the cell cycle”. For the same molecule, the “inhibition of Ser-780 pRb phosphorylation” value in test [4] is reported as “inhibit Rb (retinoblastoma protein) phosphorylation”. In the case of `CN1CC[C@H](c2c(O)cc(O)c3c(=O)cc(-c4ccccc4Cl)oc23)[C@H](O)C1` [Flavopiridol], the “concentration at which protein kinase C is inhibited” value in the test on protein kinase C is on record as not below 10 μM/L. Further, in the test with protein kinase A, the “concentration at which protein kinase A is inhibited” value is reported as not below 10 μM/L. At cyclin D1-cdk4 [1], `O=C1NC(=O)c2c1c1c3cccc4c3n(c1c1c2c2cccc3c2n1CCCNC3)CCC4` [drawing 39] had an IC50 of 605 nM. In turn, `O=C1NC(=O)c2c1c1c3cccc4c3n(c1c1c2c2cccc3c2n1CCNC3)CCC4` [drawing 40] came in with an IC50 against cyclin D1-cdk4 [1] of 35.4 nM. Same read-out and setting: the figure for `O=C1NC(=O)C(c2cn3c4c(cccc24)NCCC3)=C1c1cn2c3c(cccc13)CCC2` [drawing 43] is 143 nM. As for `O=C1NC(=O)c2c1c1c3cccc4c3n(c1c1c2c2cccc3c2n1CCCNC3)CCC4` [drawing 48], on cyclin D1-cdk4 [5], the IC50 was 336 nM.

For `O=C1NC(=O)c2c1c1c3cccc4c3n(c1c1c2c2cccc3c2n1CCNC3)CCC4` [drawing 49], at cyclin D1-cdk4 [5], the IC50 was 5.8 nM. As to `O=C1NC(=O)C(c2cn3c4c(cccc24)NCCC3)=C1c1cn2c3c(cccc13)CCC2` [drawing 50], the IC50 at cyclin D1-cdk4 [5] was 196 nM.
